Here are results for 19 molecules from ChEMBL document CHEMBL1153933, “Selective inhibition of Pfmrk, a Plasmodium falciparum CDK, by antimalarial 1,3-diaryl-2-propenones” (Bioorg Med Chem Lett, 2009).

For one test, the target named is T1, Protein kinase Pfmrk (Plasmodium falciparum, UniProt P90584).
T1 sequence (P90584 whole entry): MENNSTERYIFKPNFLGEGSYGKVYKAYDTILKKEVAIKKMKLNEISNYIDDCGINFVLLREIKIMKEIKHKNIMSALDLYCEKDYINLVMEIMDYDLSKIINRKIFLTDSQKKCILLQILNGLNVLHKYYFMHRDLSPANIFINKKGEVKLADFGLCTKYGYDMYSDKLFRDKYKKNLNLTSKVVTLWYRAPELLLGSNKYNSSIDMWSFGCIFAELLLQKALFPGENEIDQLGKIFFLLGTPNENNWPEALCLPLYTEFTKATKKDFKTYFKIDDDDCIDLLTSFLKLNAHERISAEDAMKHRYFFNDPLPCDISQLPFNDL
Nature of the test: Inhibition of His6x-tagged Plasmodium falciparum Pfmrk expressed in Escherichia coli by microtiter plate scintillation counting.

The nature of test [1]: Inhibition of His6x-tagged Plasmodium falciparum PfPK5 expressed in Escherichia coli by microtiter plate scintillation counting.
The test system of test [2] is Plasmodium falciparum. Nature of the test: Antimalarial activity after 24 hrs against chloroquine-sensitive Plasmodium falciparum D6 by [3H]hypoxanthine uptake. The class given is functional, organism-based.
For test [3], the system named is Plasmodium falciparum. The test can be described thus: Antimalarial activity after 24 hrs against chloroquine-resistant Plasmodium falciparum W2 by [3H]hypoxanthine uptake. The class given is functional, organism-based.

Some results are limits rather than exact numbers.

Turning to `COc1ccc(C(=O)/C=C/c2cccc3ccccc23)cc1`, the IC50 (against Protein kinase Pfmrk; in test [1]) was above 100 µM in each case.

Take `COc1ccc(C(=O)/C=C/c2ccc3ccccc3c2)c(OC)c1`: the IC50 on Protein kinase Pfmrk came to 100 µM.

With `O=C(/C=C/c1ccccc1)c1cccc([N+](=O)[O-])c1`, the IC50 is above 316 µM in test [1], above 19.8 µM in the test with Plasmodium falciparum [2] and above 19.8 µM in the test on Plasmodium falciparum [3].

Regarding `C/C(=C\C(=O)c1cccc([N+](=O)[O-])c1)c1cccc([N+](=O)[O-])c1`, the IC50 is above 256 µM against Protein kinase Pfmrk, above 256 µM in test [1], 8.3 µM in the test on Plasmodium falciparum [2] and 8.2 µM in the test on Plasmodium falciparum [3].

For the molecule `CC(=O)Nc1ccc(C(=O)/C=C/c2ccccc2)cc1`, the IC50 in test [1] was above 302 µM; in the test on Plasmodium falciparum [2], 10.9 µM; with Plasmodium falciparum [3], 9.9 µM.

Regarding `CCOC(=O)/C(=C\c1ccccn1)C(=O)c1cccc([N+](=O)[O-])c1`, the IC50 at Protein kinase Pfmrk was determined as 61 µM; in test [1], 123 µM.

Consider `O=C(/C=C/c1ccc([N+](=O)[O-])cc1)c1cccc([N+](=O)[O-])c1`, for which the IC50 was 268 µM at Protein kinase Pfmrk, above 268 µM in test [1], above 16.8 µM in the test on Plasmodium falciparum [2] and above 16.8 µM in the test with Plasmodium falciparum [3].

As to `COc1ccc(C(=O)/C=C/c2cccc3ccccc23)c(OC)c1`, the IC50 is 1.3 µM against Protein kinase Pfmrk and above 100 µM in test [1].

Consider `COc1ccc(C(=O)/C=C/c2cccc3ccccc23)c(OC)c1OC`, for which the results for the IC50 (on Protein kinase Pfmrk; in test [1]) were 50 µM and above 100 µM, respectively.

As to `COc1ccc(C(=O)/C=C/c2ccccn2)cc1`, the IC50 on Protein kinase Pfmrk is 12 µM; in test [1], above 100 µM; in the test on Plasmodium falciparum [2], 7.1 µM; in the test on Plasmodium falciparum [3], 10.5 µM.

Regarding `COc1ccc(C(=O)/C=C/c2ccccn2)c(OC)c1OC`, the IC50 on Protein kinase Pfmrk was 34 µM; in test [1], above 100 µM; in the test with Plasmodium falciparum [2], 2.5 µM; in the test with Plasmodium falciparum [3], 2.3 µM.

As for `COc1ccc(C(=O)/C=C/c2cccnc2)c(OC)c1OC`, the IC50 is 38 µM at Protein kinase Pfmrk, above 100 µM in test [1], 3.2 µM in the test with Plasmodium falciparum [2] and 3.9 µM in the test with Plasmodium falciparum [3].

As for `N#Cc1ccc(C(=O)/C=C/c2ccc(Cl)cc2)cc1`, the half-maximal inhibitory concentration (IC50) is above 100 µM against Protein kinase Pfmrk, above 299 µM in test [1], above 18.2 µM with Plasmodium falciparum [2] and 10.5 µM in the test on Plasmodium falciparum [3].

Consider `Cc1ccc(C(=O)/C=C/c2ccccc2)cc1`, for which the IC50 was 20 µM on Protein kinase Pfmrk, above 360 µM in test [1], 11.7 µM in the test with Plasmodium falciparum [2] and 11.5 µM in the test with Plasmodium falciparum [3].

Regarding `COc1ccc(C(=O)/C=C/c2ccncc2)c(OC)c1OC`, the IC50 against Protein kinase Pfmrk was 9 µM; in test [1] it was above 100 µM; in the test on Plasmodium falciparum [2], 2.8 µM; with Plasmodium falciparum [3], 3.2 µM.

Turning to `O=C(/C=C/c1ccccn1)c1ccccc1` [WR-190433], the IC50 at Protein kinase Pfmrk is 22 µM; in test [1] it was above 382 µM.

`COc1ccc(C(=O)/C=C/c2ccncc2)cc1`: the IC50 against Protein kinase Pfmrk was 8.2 µM; in test [1], 100 µM; with Plasmodium falciparum [2], 12 µM; in the test with Plasmodium falciparum [3], 12.2 µM.

On to `COc1ccc(C(=O)/C=C/c2ccc3ccccc3c2)c(OC)c1OC`, for which the values for the IC50 (at Protein kinase Pfmrk; in test [1]) were 19 µM and above 100 µM, respectively.

`O=C(/C=C/c1ccccn1)c1cccc([N+](=O)[O-])c1`: the IC50 is 18 µM against Protein kinase Pfmrk, above 315 µM in test [1], 11 µM in the test on Plasmodium falciparum [2] and above 19.7 µM in the test on Plasmodium falciparum [3].
